Test results reported in patent US10391113B2, “Compatible composition containing chinese medicine cichorium glandulosum boiss et hout as lipid-lowering active ingredient” (Nanjing Ruiying Runze Biopharmaceutical Technology Co., Inc., priority 2014, dated 2019).

How the values were obtained:
[1] = test system: high fat diet induced rat lipid metabolism disorder model; assay: High fat diet induced rat lipid metabolism disorder model; type: in vivo, SD rat; conditions: 0.1 g/kg by gavage once a day, high fat feedstuff, after the eighth week
Experimental: Experiment method: 90 SD rats are normally fed for 1 week, the normal group of 10 rats are fed common feedstuff, and others are fed high fat feedstuff (basic feedstuff 88%, lard 10% and cholesterol 2%). 4 weeks later, the rats fed high fat feedstuff are randomly divided into 5 groups, each group of 10. […] The rats in the bezafibrate group are fed bezafibrate 100 mg/kg at the same time as the high fat feedstuff feeding respectively. The tested sample groups are given 100 mg/kg by gavage respectively at the same time as the high fat feedstuff feeding, once a day. The experiment animals can freely drink water and take food, and are fed separately in cages in light and dark for 12 hours, respectively, in a SPF grade animal lab under 25±2° C. After the eighth week of the experiment, the rats are fasted for 16 hours, collected blood from arteria cruralis, sacrificed by dislocating the cervical vertebra, taking out the liver, and preparing serum and liver tissue homogenate in conventional method. The triglyceride (TG), total cholesterol (TC), high density lipoprotein (HDL-C), low density lipoprotein (LDL-C), glutamic-pyruvic transaminase (ALT) and glutamic-oxalacetic transaminase (AST) content in the serum and liver is detected.

HepG2 cell = assay: Lipid droplet content of free fat acid (FFA) induced HepG2 cell (nile red, flow detection); type: cell-based; conditions: 24 hours, geometric median of fluorescence intensity, means ± s.d., n = 3, model group 222.64 ± 8.34
Experimental: Experiment method: the HepG2 cells in the logarithmic growth phase are taken having a growth density of 80%, and inoculated into 6-well plate at 1×10^5 per well. After culturing cells for 24 hours, the supernatant is discarded, and the cells are washed with PBS three times. […] Except for the blank control group, all of the other groups are added FFA having a final concentration of 1 mmol/L, and the remaining volume is completed to 2 mL with the DMEM medium containing 10% fetal bovine serum, 24 hours after administration, washed with PBS in 37° C. three times, digested by the pancreatin, centrifugated, the supernatant is discarded, the cells are resuspended with PBS, and the final concentration is adjusted to 1 μg/mL by adding nile red dye.

rat primary hepatocyte = assay: Influence on the lipid droplet content of the rat primary hepatocyte (FFA hyperlipidemia model, nile red, flow detection); type: cell-based, SD rat; conditions: administration dose 20 μM total molar concentration; 1 mmol/L FFA; 24 hours; means ± s.d., n = 3; versus model group
Experimental: The hepatocyte is taken out from the SD rat liver by using Seglen two steps in situ circulatory perfusion method, filtered through 100-mesh sieve, centrifugated for 3 min at 500 rpm and 4° C., and the supernatant is discarded, and the hepatocyte is washed three times in the same way. The number of living cells and the cell survival rate is obtained by counting the cell, and the cells are added in the plate at 1.0*10^6 cell/mL medium. The cells are cultured for 24 hours, then the supernatant is discarded, and the cells are washed with PBS three times. […] Other groups are adjusted to a final volume of 2 mL with Williams'E medium without serum, and 24 hours after administration, washed with PBS in 37° C. three times, digested by the pancreatin, centrifugated, the supernatant is discarded, the cells are resuspended with PBS, and the final concentration is adjusted to 1 μg/mL by adding nile red dye. […] Using D-Optimal experimental design method in the mixture experimental design, calculation is carried out by using response surface analysis method and using Design expert8.05b software. Choosing D-optimal in the Mixture option, analysis is carried out by entering compatible ratio of the compatible groups and the test results in Table 2.

[2] = administration dose 20 μM, 1 mM FFA

CC(C)(Oc1ccc(CCNC(=O)c2ccc(Cl)cc2)cc1)C(=O)O [bezafibrate]
Weight [1]: 433.15 ± 24.53 g | ALT (U/L) ([1]; listed under liver): 107.9 ± 14.12 U/L | AST (U/L) ([1]; listed under liver): 217.8 ± 33.93 U/L | liver TC (mg/g liver) ([1]; liver): 33 ± 12.23 mg/g liver | liver TG (mg/g liver) ([1]; liver): 186 ± 37.92 mg/g liver | serum HDL-C ([1]; serum): 1.58 ± 0.29 mmol/L | serum LDL-C ([1]; serum): 0.54 ± 0.30 mmol/L | serum TC ([1]; serum): 1.58 ± 0.17 mmol/L | serum TG ([1]; serum): 0.88 ± 0.19 mmol/L | lipid droplet content (HepG2 cell; administration dose 100 μM): 178.84 ± 2.84

O=c1c(O[C@@H]2O[C@H](CO)[C@@H](O)[C@H](O)[C@H]2O)c(-c2ccc(O)c(O)c2)oc2cc(O)cc(O)c12 [isoquercitrin]
decrease of the lipid droplet content (%) (rat primary hepatocyte): 7.52 ± 1.63% | lipid droplet content (HepG2 cell; [2]): 200.61 ± 8.43

O=c1c(O)c(-c2ccc(O)c(O)c2)oc2cc(O)cc(O)c12 [quercetin]
decrease of the lipid droplet content (%) (rat primary hepatocyte): 7.01 ± 1.03% | lipid droplet content (HepG2 cell; [2]): 198.25 ± 6.04

O=C(O)[C@H]1O[C@@H](Oc2c(-c3ccc(O)c(O)c3)oc3cc(O)cc(O)c3c2=O)[C@H](O)[C@@H](O)[C@@H]1O [quercetin-3-O-β-D-glucuronide]
decrease of the lipid droplet content (%) (rat primary hepatocyte): 8.07 ± 0.92% | lipid droplet content (HepG2 cell; [2]): 153.38 ± 2.88
